The values that follow come from US8058243B2, “Method for treating a brain cancer with ifenprodil” (HSC Research and Development Limited Partnership, priority 2006, dated 2011).

The assay relates to murine neural precursor cells (neurosphere cultures). Kind of assay: HTS of LOPAC library against secondary neurosphere cultures, MTT proliferation assay at 3 μM, day 7 (z score, P value). In kind it is cell-based, mouse. For orientation: Formazan colour is commonly taken as a measure of viable cells.
[1] abbreviates: LOPAC library screen, 3 μM, MTT, neurosphere cultures.
Where [2] appears, read: LOPAC primary screen, neurosphere MTT proliferation, 3 μM, day 7.
The mark [3] stands for this setting: yes/no: significantly inhibited neurosphere proliferation (P<0.01) in the primary screen.
[4] abbreviates: LOPAC library screen, 3 μM, MTT, secondary neurosphere cultures, day 7.
[5] abbreviates: yes/no: significantly inhibited neurosphere proliferation (P<0.01) in primary screen.
Where [6] appears, read: yes = significantly inhibited neurosphere proliferation (P<0.01) in the primary screen.
Setting [7] is: LOPAC library screen at 3 μM, secondary neurosphere cultures, MTT.
[8] abbreviates: LOPAC library screen at 3 μM, MTT, secondary neurosphere cultures, screened in singlets.
Setting [9] is: yes/no: significantly inhibited neurosphere proliferation in primary screen.

Counter-ions that a name gives are not always drawn. Like-named read-outs stand apart in the source and are kept apart here.

Take `CN(C)CCN(Cc1cccs1)c1ccccn1` [Methapyrilene hydrochloride]: the “Z Score” value under setting [1] is on record as 0.6276. Besides, the Z score under setting [2] is recorded as 0.628.
For the molecule `CSc1ccc2c(c1)C(N1CCN(C)CC1)Cc1ccccc1S2` (stereo not drawn) [Methiothepin (38), Methiothepin, reference compound], under “168 h, 3 µM”, the “Z Score” value worked out at 1.868 and the Z score is listed as 1.868. For the same molecule, the Activity entry under setting [3] was “no”.
Consider `COc1ccccc1CNCCCCCCNCCCCCCCCNCCCCCCNCc1ccccc1OC` [Methoctramine (31), Methoctramine, reference compound], for which, where the note is “168 h, 3 µM”, the “Z Score” value is −7.012 and the Z score is given as −7.012. Further, the Activity entry under setting [3] was “yes”.
For the molecule `CN(Cc1cnc2nc(N)nc(N)c2n1)c1ccc(C(=O)N[C@@H](CCC(=O)O)C(=O)O)cc1` [Methotrexate], the “Z Score” value under setting [4] is listed as −10.2. Moreover, the Z score under setting [2] is recorded as −10.203. Further, the Activity entry under setting [3] is on record as “yes”.
`COc1ccc(OC)c(C(O)C(C)N)c1` (stereo not drawn) [Methoxamine hydrochloride]: the “Z Score” value under setting [4] is −3.255. The Z score under setting [2] is −3.255. Further, the Activity entry under setting [3] was “yes”.
Turning to `CCc1c(C(=O)OC)ncc2[nH]c3cc(OC)c(OC)cc3c12` [Methyl 6,7-dimethoxy-4-ethyl-beta-carboline-3-carboxylate], the “Z Score” value was −1.326. In addition, the Z score under setting [2] is listed as −1.326. Also, the Activity entry under setting [5] is reported as “no”.
Turning to `COC(=O)c1cc2c(cn1)[nH]c1ccccc12` [Methyl beta-carboline-3-carboxylate], the “Z Score” value turned out to be 0.06023. Under setting [2], this molecule gave a Z score of 0.060. For the same molecule, under setting [5], the Activity entry is listed as “no”.
For `CNC(=O)OCC[N+](C)(C)C.[Cl-]` [Methylcarbamylcholine chloride], the “Z Score” value is reported as 1.913. Moreover, the Z score under setting [2] was 1.913. In addition, under setting [6], the Activity result is recorded as “no”.
As to `CC[C@@H](CO)NC(=O)[C@@H]1C=C2c3cccc4[nH]cc(c34)C[C@H]2N(C)C1` [Methylergonovine maleate], the “Z Score” value was −0.7846. The molecule also returned a Z score under setting [2] of −0.785. The Activity result under setting [6] is “no”.
With `CC[C@@H](CO)NC(=O)[C@@H]1C=C2c3cccc4c3c(cn4C)C[C@H]2N(C)C1` [Methysergide maleate], the “Z Score” value was −0.01983. Also, the Z score under setting [2] was −0.020. Besides, the Activity entry under setting [6] is listed as “no”.
For `CCN(CC)CCNC(=O)c1cc(Cl)c(N)cc1OC` [Metoclopramide hydrochloride], where the note is “168 h, 3 µM”, the “Z Score” value is on record as −1.992 and the Z score was −1.992. Moreover, the Activity entry under setting [3] is given as “no”.
For `Cc1ccccc1N1C(=O)c2cc(S(N)(=O)=O)c(Cl)cc2NC1C` (stereo not drawn) [Metolazone], under setting [4], the “Z Score” value is recorded as −8.113. This molecule gave a Z score under setting [2] of −8.113. Under setting [6], the Activity result is “yes”.
Take `Cc1ccccc1/C=C/C1=NCCN1` [Metrazoline oxalate]: for the setting “168 h, 3 µM”, the “Z Score” value is listed as 0.1073 and the Z score is reported as 0.107. Besides, the Activity entry under setting [6] is listed as “no”.
`Cc1ccccc1CNc1ncnc2c1ncn2[C@@H]1O[C@H](CO)[C@@H](O)[C@H]1O` [Metrifudil]: the “Z Score” value under setting [7] is recorded as −0.2123. The same molecule displayed a Z score under setting [2] of −0.212. Moreover, the Activity result under setting [6] is on record as “no”.
On to `CC[C@H](C)C(=O)O[C@H]1CCC=C2C=C[C@H](C)[C@H](CC[C@@H]3C[C@@H](O)CC(=O)O3)[C@H]21` [Mevastatin], for which the “Z Score” value under setting [4] is on record as −6.278. Under setting [2], this molecule had a Z score of −6.278. Under setting [6], the Activity entry was “yes”.
Take `Cc1cccc(C)c1OCC(C)N.Cl` (stereo not drawn) [Mexiletene hydrochloride]: the “Z Score” value was −1.259. For the same molecule, under setting [2], the Z score is −1.259. Moreover, the Activity entry under setting [6] is “no”.
Consider `CN1CCN2c3ccccc3Cc3ccccc3C2C1` (stereo not drawn) [Mianserin hydrochloride], for which the Activity entry was “no”. In addition, the “Z Score” value under setting [1] was 0.9746. This molecule showed a Z score under setting [2] of 0.975.
For the molecule `COCC(=O)O[C@]1(CCN(C)CCCc2nc3ccccc3[nH]2)CCc2cc(F)ccc2[C@@H]1C(C)C` [Mibefradil dihydrochloride], the “Z Score” value under setting [1] was −0.02693. Under setting [2], the Z score is given as −0.027. Further, under setting [6], the Activity result was “no”.
In the case of `CC#C[C@]1(O)CC[C@H]2[C@@H]3CCC4=CC(=O)CCC4=C3[C@@H](c3ccc(N(C)C)cc3)C[C@@]21C` [Mifepristone], for the setting “168 h, 3 µM”, the “Z Score” value was −1.97 and the Z score is −1.970. The Activity entry under setting [6] is recorded as “no”.
In the case of `Cc1[nH]c(=O)c(C#N)cc1-c1ccncc1` [Milrinone], the “Z Score” value under setting [1] was 0.05506. The same molecule showed a Z score under setting [2] of 0.055. Moreover, the Activity result under setting [6] is reported as “no”.
Regarding `CN(C)c1ccc(O)c2c1C[C@H]1C[C@H]3[C@H](N(C)C)C(O)=C(C(N)=O)C(=O)[C@@]3(O)C(O)=C1C2=O` [Minocycline hydrochloride], the “Z Score” value under setting [1] was determined as 0.4419. The molecule further gave a Z score under setting [2] of 0.442.
On to `O=C1c2c(O)ccc(O)c2C(=O)c2c(NCCNCCO)ccc(NCCNCCO)c21` [Mitoxantrone], for which the “Z Score” value under setting [4] is recorded as −10.21. Moreover, the Z score under setting [2] is given as −10.205. The Activity result under setting [6] was “yes”.
`NC(=O)c1ncn([C@@H]2O[C@H](CO)[C@@H](O)[C@H]2O)c1O` [Mizorbine]: the Z score under setting [2] came to 1.642. In addition, under setting [6], the Activity entry was “no”.
As for `NC(=O)c1ncn([C@@H]2O[C@H](CO)[C@@H](O)[C@H]2O)c1O` [Mizoribine], under setting [8], the “Z Score” value was determined as 1.642.
Consider `CCOC(=O)[N-]c1cn(N2CCOCC2)n[o+]1` [Molsidomine], for which the “Z Score” value under setting [8] is reported as 1.567. For the same molecule, the Z score under setting [2] turned out to be 1.567. The Activity result under setting [6] was “no”.
In the case of `CCOC(=O)C1=C(C)NC(=S)NC1c1cccc(O)c1` (stereo not drawn) [Monastrol], where the note is “168 h, 3 µM”, the “Z Score” value is recorded as −1.162 and the Z score is on record as −1.162.
Consider `O=c1c(O)c(-c2ccc(O)cc2O)oc2cc(O)cc(O)c12` [Morin], for which, where the note is “168 h, 3 µM”, the “Z Score” value is listed as −2.216 and the Z score is −2.216. Besides, the Activity entry under setting [6] is on record as “no”.
`CC(=O)Oc1cc(C(C)C)c(OCCN(C)C)cc1C` [Moxisylyte hydrochloride]: the “Z Score” value under setting [7] is −1.018. Under setting [2], the Z score is reported as −1.018. For the same molecule, under setting [6], the Activity result was “no”.
On to `COc1nc(C)nc(Cl)c1N=C1NCCN1` [Moxonidine hydrochloride], for which the “Z Score” value under setting [1] is listed as 0.2171. This molecule also displayed a Z score under setting [2] of 0.217. Also, under setting [6], the Activity result was “no”.
For the molecule `NCc1cc(=O)[nH]o1` [Muscimol hydrobromide], the “Z Score” value is 0.1863. In addition, the Z score under setting [2] was 0.186. Moreover, the Activity result under setting [5] is recorded as “no”.
Take `O=c1c(O)c(-c2cc(O)c(O)c(O)c2)oc2cc(O)cc(O)c12` [Myricetin]: the “Z Score” value is −0.9113. The Z score under setting [2] is reported as −0.911. For the same molecule, under setting [6], the Activity result is on record as “no”.
Consider `Nc1ccc(CCNc2ncnc3c2ncn3[C@@H]2O[C@H](CO)[C@@H](O)[C@H]2O)cc1` [N6-2-(4-Aminophenyl)ethyladenosine], for which, where the note is “168 h, 3 µM”, the “Z Score” value is reported as −1.323 and the Z score was −1.323. The Activity entry (yes/no: significantly inhibited neurosphere proliferation in the primary screen) is “no”.
Regarding `OC[C@H]1O[C@@H](n2cnc3c(NCCc4ccccc4)ncnc32)[C@H](O)[C@@H]1O` [N6-2-Phenylethyladenosine], under setting [1], the “Z Score” value is listed as 0.5312. For the same molecule, the Z score under setting [2] was 0.531. The Activity entry under setting [9] is on record as “no”.
For `CCNC(=O)[C@H]1O[C@@H](n2cnc3c(NCc4ccccc4)ncnc32)[C@H](O)[C@@H]1O` [N6-Benzyl-5′-N-ethylcarboxamidoadenosine], the “Z Score” value under setting [7] is listed as −0.7976. The same molecule showed a Z score (LOPAC screen, neurosphere MTT proliferation, 3 μM, day 7) of −0.798. Further, the Activity entry under setting [5] is listed as “no”.
On to `OC[C@H]1O[C@@H](n2cnc3c(NC4CCCCC4)ncnc32)[C@H](O)[C@@H]1O` [N6-Cyclohexyladenosine], for which, under setting [4], the “Z Score” value is listed as −2.883. Under setting [2], this molecule showed a Z score of −2.883. Also, the Activity entry under setting [3] is listed as “yes”.
In the case of `Cn1cnc2c(NC3CCCC3)ncnc21` [N6-Cyclopentyl-9-methyladenine], under setting [4], the “Z Score” value is −2.112. The molecule further registered a Z score under setting [2] of −2.112. Further, the Activity result under setting [9] is reported as “no”.
As for `OC[C@H]1O[C@@H](n2cnc3c(NC4CCCC4)ncnc32)[C@H](O)[C@@H]1O` [N6-Cyclopentyladenosine], under “168 h, 3 µM”, the “Z Score” value was −0.7839 and the Z score is listed as −0.784. For the same molecule, under setting [5], the Activity entry is recorded as “no”.
Turning to `CNc1ncnc2c1ncn2[C@@H]1O[C@H](CO)[C@@H](O)[C@H]1O` [N6-Methyladenosine], where the note is “168 h, 3 µM”, the “Z Score” value is reported as 0.7424 and the Z score is recorded as 0.742. Moreover, the Activity entry under setting [6] is listed as “no”.
Consider `OC[C@H]1O[C@@H](n2cnc3c(Nc4ccccc4)ncnc32)[C@H](O)[C@@H]1O` [N6-Phenyladenosine], for which the “Z Score” value amounted to 0.7283 and the Z score is 0.728. For the same molecule, the Activity entry under setting [9] is “no”.
With `CN(C)C(=O)N=NC(=O)N(C)C` [N,N,N′,N′-Tetramethylazodicarboxamide], for the setting “168 h, 3 µM”, the “Z Score” value is reported as −0.6393 and the Z score is given as −0.639. For the same molecule, the Activity entry under setting [5] is given as “no”.
Consider `CCCCCCN(CCCCCC)C(=O)Cc1c(-c2ccc(F)cc2)[nH]c2ccccc12` [N,N-Dihexyl-2-(4-fluorophenyl)indole-3-acetamide], for which, where the note is “168 h, 3 µM”, the “Z Score” value is given as 1.916 and the Z score worked out at 1.916. In addition, the Activity entry under setting [5] is “no”.
Regarding `COc1cccc(C(=O)NCCN2CCN(c3ccc(Cl)cc3)CC2)c1` [N-(2-[4-(4-Chlorophenyl)piperazin-1-yl]ethyl)-3-methoxybenzamide], the “Z Score” value under setting [1] is 0.3828. The molecule further displayed a Z score under setting [2] of 0.383. The Activity result under setting [3] is reported as “no”.
